Some results are limits rather than exact numbers.

Experiment [1] addresses T1, UGT8 (Mus musculus, UniProt Q64676).
T1 construct: Groups of 5 male C57Bl/6 mice, 6-9 wks of age (Charles River Laboratories); tissue Charles River Laboratories; host or cells: mouse kidney (adult C57Bl/6) and mid-/hind brain (neonatal P14-P21 mice)
T1 sequence (Q64676 21-541): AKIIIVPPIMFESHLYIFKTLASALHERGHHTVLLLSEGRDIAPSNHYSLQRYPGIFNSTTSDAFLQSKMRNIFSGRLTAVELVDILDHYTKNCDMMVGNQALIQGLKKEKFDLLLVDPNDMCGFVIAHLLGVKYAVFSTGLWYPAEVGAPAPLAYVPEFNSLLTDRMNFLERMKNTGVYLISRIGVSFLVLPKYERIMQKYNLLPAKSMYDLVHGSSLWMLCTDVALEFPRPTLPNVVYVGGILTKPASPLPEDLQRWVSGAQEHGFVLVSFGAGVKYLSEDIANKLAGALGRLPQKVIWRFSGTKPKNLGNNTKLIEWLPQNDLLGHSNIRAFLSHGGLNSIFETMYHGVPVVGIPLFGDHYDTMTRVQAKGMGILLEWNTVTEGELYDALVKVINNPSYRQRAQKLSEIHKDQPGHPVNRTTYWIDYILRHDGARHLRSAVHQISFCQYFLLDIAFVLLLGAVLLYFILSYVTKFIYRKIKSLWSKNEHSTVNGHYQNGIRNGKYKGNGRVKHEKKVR
Put plainly: Acute in vivo target engagement in mouse kidney: inhibition of de novo GalCer and SFT synthesis (13C-Gal incorporation). The settings on record: 5 hr. On the procedure: In vivo target engagement was initially assessed in an adult mouse kidney model assessing de novo synthesis inhibition. This model was selected because the high rate of GalCer and SFT synthesis and turnover in kidney facilitated development of an acute one-day model assessing the effect of a single administration of compound at different doses. Inhibition of de novo synthesis was determined by measuring the amount of 13C6 galactose (13C-Gal; CIL, cat #CLM-1570-pk) incorporated into GalCer and SFT.
Groups of 5 male C57Bl/6 mice, 6-9 wks of age (Charles River Laboratories) were maintained in an ALAAC-accredited vivarium with food and water ad libitum and were allowed to acclimate one week before initiating studies. Three to 5 dose groups received test article formulated in a clinically-acceptable formulation, administered by oral gavage; the control group received vehicle alone. One hr after administration of test article, animals received an intraperitoneal (i.p.) injection of 13C-Gal (3 g/kg); 5 hr after administration of test article, animals were euthanized and a kidney was removed and divided into two longitudinal samples that were snap-frozen and stored at −80° C. until processing for test article tissue exposure and lipid analysis (GalCer and SFT). Typically, brain and plasma samples were also collected for test article exposure.
(§1) Mass Spectrometer Analysis of SFT
(§2) Quantitative analysis of sphingolipids (SLs) was performed using liquid chromatography with tandem mass spectrometry analysis (LC-MS/MS). Briefly, to extract glucosylceramide (GlcCer), galactosylceramide (GalCer), and sulfatide (ST), an aliquot of 10 μL of mouse tissue homogenate (100 mg/ml in water) was mixed with 1 mL of extraction solution (0.2% Formic Acid; 5 mM Ammonium formate in (50:50) Methanol:Acetonitrile (v/v) with internal standards (IS)). C17-ST and D35 labeled C18-GalCer were used for IS. The mixtures were vortexed and centrifuged. The resulting supernatants were transferred to HPLC vials for LC-MS/MS analysis. GlcCer and GalCer were separated using a Waters Acquity UPLC and Atlantis HILIC Silica column (2.1 mm×150 mm, […], Waters Corp., Milford, Mass.) and analyzed by an API 5000 triple quadrupole mass spectrometer in MRM mode (Applied Biosystems, Foster City, Calif.). ST were analyzed using a Waters Acquity UPLC and BEH C18 column (2.1 mm×50 mm, […], Waters Corp., Milford, Mass.) and analyzed by an API 6500 triple quadrupole mass spectrometer in MRM mode (Applied Biosystems, Foster City, Calif.).

Experiment [2] deals with T1, UGT8. The experiment is described as follows: Acute in vivo target engagement in neonatal mouse brain: inhibition of de novo GalCer and SFT synthesis (13C-Gal incorporation). The note with it: neonatal mouse (P14-P21) brain, 5 hr.
Excerpt: SFT biosynthesis and turnover in the myelin of adult mice is very low, necessitating development of a short-term acute model of de novo synthesis inhibition. To do this, we took advantage of the fact that unlike primates in which most developmental myelination occurs in utero, in rodents, peak myelination occurs between postnatal day 14 (P14) and P22.
Groups of 5 neonatal mice age-matched between P14 and P21 received test article formulated in a clinically-acceptable formulation, administered by oral gavage; the control group received vehicle alone. One hr after administration of test article, animals received an i.p. injection of 13C-Gal (3 g/kg); 5 hr after administration of test article, animals were euthanized, brains were removed and dissected for recovery of mid- and hind brain which was snap-frozen and stored at −80° C. until analysis. Plasma samples were also collected for test article exposure analysis.
as §1, §2

Experiment [3] has as its target T2, UGT8 (Homo sapiens, UniProt Q16880).
T2 construct: host or cells: OE19 cells
T2 sequence (Q16880 21-541): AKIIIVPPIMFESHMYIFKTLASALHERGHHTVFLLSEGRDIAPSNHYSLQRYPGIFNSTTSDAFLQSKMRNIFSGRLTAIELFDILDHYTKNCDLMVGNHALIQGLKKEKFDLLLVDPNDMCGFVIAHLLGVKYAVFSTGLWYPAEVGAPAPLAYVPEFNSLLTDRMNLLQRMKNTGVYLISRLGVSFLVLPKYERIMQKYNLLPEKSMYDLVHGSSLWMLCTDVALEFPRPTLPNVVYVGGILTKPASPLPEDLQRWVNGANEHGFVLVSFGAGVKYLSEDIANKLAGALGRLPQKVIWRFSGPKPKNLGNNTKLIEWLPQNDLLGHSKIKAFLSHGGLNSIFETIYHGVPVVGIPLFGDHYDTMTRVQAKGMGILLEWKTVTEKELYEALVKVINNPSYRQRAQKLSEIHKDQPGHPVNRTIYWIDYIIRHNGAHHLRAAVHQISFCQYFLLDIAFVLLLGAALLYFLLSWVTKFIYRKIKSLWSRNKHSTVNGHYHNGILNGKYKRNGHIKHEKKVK
The experiment is described as follows: In vitro sulfatide (SFT) synthesis inhibition in OE19 cells, LC-MS/MS readout. The format is cell-based. The settings on record: 72 hr, sulfatide by LC-MS/MS, read-out: Potency range (IC50, In-vitro SFT). In short, it runs like this: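 OE19 cells, 2,500/well, exposed to compound dose-downs in triplicate for 72 hr at 37° C (screening at 10 μM final). Sulfatide quantified by LC-MS/MS (C8 UPLC, isocratic, negative-ion MRM) with C17 SFT internal standard; IC50 from concentration-response curves.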

In general, IC50 refers to the midpoint of a concentration-inhibition curve. On to `CNC(=O)c1csc2c(C(F)(F)F)cc(O[C@@H]3CCN(C(=O)OCCOC(F)(F)F)[C@H](C)C3)nc12` [Example 375, 2-(Trifluoromethoxy)ethyl (2R,4R)-2-methyl-4-((3-(methylcarbamoyl)-7-(trifluoromethyl)thieno[3,2-b]pyridin-5-yl)oxy)piperidine-1-carboxylate], for which the “kidney GalCer % inh” value is “C (C < 40%)” at UGT8 [1] (single oral dose 1 mg/kg); “C (C < 40%)” at UGT8 [1] (single oral dose 3 mg/kg); “B (40% < B < 80%)” on UGT8 [1] (single oral dose 10 mg/kg); “A (A > 80%)” at UGT8 [1] (single oral dose 30 mg/kg); “A (A > 80%)” at UGT8 [1] (single oral dose 100 mg/kg). For the same compound, the “kidney Sulfatide % inh” value is on record as “C (C < 40%)” on UGT8 [1] (single oral dose 1 mg/kg); “C (C < 40%)” on UGT8 [1] (single oral dose 3 mg/kg); “B (40% < B < 80%)” on UGT8 [1] (single oral dose 10 mg/kg); “A (A > 80%)” at UGT8 [1] (single oral dose 30 mg/kg); “A (A > 80%)” on UGT8 [1] (single oral dose 100 mg/kg). In addition, the “brain GalCer % inh” value was “B (40% < B < 80%)” at UGT8 [2] (single oral dose 1 mg/kg), “B (40% < B < 80%)” at UGT8 [2] (single oral dose 3 mg/kg) and “A (A > 80%)” at UGT8 [2] (single oral dose 10 mg/kg). For the same compound, the “brain Sulfatide % inh” value on UGT8 [2] (single oral dose 1 mg/kg) is reported as “B (40% < B < 80%)”; at UGT8 [2] (single oral dose 3 mg/kg) it was “B (40% < B < 80%)”; on UGT8 [2] (single oral dose 10 mg/kg), “A (A > 80%)”. Further, at UGT8 [3], the concentration for half-maximal inhibition (IC50) is below 100 nM.

For the compound `CNC(=O)c1csc2c(C(F)(F)F)cc(N3CCC(OC(=O)NC4CC4)CC3)nc12` [Example 473, 1-(3-(Methylcarbamoyl)-7-(trifluoromethyl)thieno[3,2-b]pyridin-5-yl)piperidin-4-yl cyclopropylcarbamate], the figures for the “kidney GalCer % inh” value at UGT8 [1] (single oral dose 3 mg/kg), at UGT8 [1] (single oral dose 10 mg/kg) and at UGT8 [1] (single oral dose 50 mg/kg) were “C (C < 40%)”, “C (C < 40%)” and “B (40% < B < 80%)”, respectively. The “kidney Sulfatide % inh” value on UGT8 [1] (single oral dose 3 mg/kg) is reported as “C (C < 40%)”; at UGT8 [1] (single oral dose 10 mg/kg), “B (40% < B < 80%)”; on UGT8 [1] (single oral dose 50 mg/kg) it was “A (A > 80%)”. Also, the “brain GalCer % inh” value at UGT8 [2] (single oral dose 10 mg/kg) was “A, A, A (A > 80%)”; on UGT8 [2] (single oral dose 30 mg/kg), “A, A, A (A > 80%)”; on UGT8 [2] (single oral dose 100 mg/kg) it was “A, A, A (A > 80%)”. Moreover, the “brain Sulfatide % inh” value on UGT8 [2] (single oral dose 10 mg/kg) is “A, A, A (A > 80%)”; on UGT8 [2] (single oral dose 30 mg/kg) it was “A, A, A (A > 80%)”; on UGT8 [2] (single oral dose 100 mg/kg), “A, A, A (A > 80%)”. The IC50 at UGT8 [3] was below 100 nM.
